Values quoted from earlier work, collected in US6500456B1 (priority 1997, dated 2002).

Conditions: at 20° C., pure nitroglycerin

SMILES: O=[N+]([O-])OCC(CO[N+](=O)[O-])O[N+](=O)[O-] [nitroglycerin]
- Vapor pressure: about 0.00026 mm
